Reference: patent US8999383B2, “Compositions of GnRH related compounds and processes of preparation” (Merrion Research III Limited, priority 2008, dated 2015)
Non-standard residues stand in square brackets, D forms with d. Residues, ends and D or L forms follow the SMILES beside them. dPhe(4-NH2) = Nc1ccc(C[C@@H](N)C(=O)O)cc1; dPhe(4-Cl) = N[C@H](Cc1ccc(Cl)cc1)C(=O)O; Phe(4-NH2) = Nc1ccc(C[C@H](N)C(=O)O)cc1; d2Nal = N[C@H](Cc1ccc2ccccc2c1)C(=O)O; Lys(iPr) = CC(C)NCCCC[C@H](N)C(=O)O; d3Pal = N[C@H](Cc1cccnc1)C(=O)O

Assay: Gelation of acyline in pH 6.8 buffer with sodium caprate and Tween 80 (filtration, reverse phase HPLC)
Type: physicochemical
Procedure: Different concentrations of acyline composition are prepared by adding acyline to pH 6.8 buffer solution either at room temperature or 37° C. All acyline solutions contain 0.6 mg/mL sodium caprate (sodium caprate is referred as C10 in the figures). All samples are centrifuged and filtered prior to analysis. Samples are analyzed by reverse phase HPLC with UV detection. 10 mg acyline is transferred into […] volumetric flask. A pH 6.8 buffer solution is preheated to 37° C. Then, 100 mL pre-heated buffer solution and 0.6 mg/mL sodium caprate is added to the flask to prepare a 0.1 mg/mL acyline sample. In a similar manner, Tween 80 is added to prepare a 0.1 mg/mL acyline solution with 1% Tween 80. Samples are shaken in a temperature controlled water bath at 37° C. 5 mL samples are taken at 1, 5, 10, 15, 20, 30 and 120 minutes after mixing acyline with the buffer solution. Samples are filtered immediately through 0.45 μm filters and the first 3 mL is discarded. Filtered samples are analyzed, undiluted, by reverse phase HPLC with UV detection. All samples are prepared in duplicate and the concentration was obtained for the analysis from the mean of the duplicates. The result of comparison of 1% and 0% Tween 80 at 0.1 mg/mL acyline sample is graphically recorded in FIG. 5. […] A similar experimental procedure as Example 4 is used to prepare acyline sample for example 5. The result of comparison of 5 mg/mL, 1 mg/mL, 0.1 mg/mL and 1% Tween in phosphate buffer containing 0.6 mg/mL of sodium caprate and 0.1 mg/mL acyline is graphically recorded in FIG. 6. […] A similar experimental procedure as Example 4 is used to prepare acyline sample for example 6. The result of comparison of 1% and 1 mg/mL Tween 80 in 0.1 and 0.01 mg/mL acyline sample is graphically recorded in FIG. 7. […] A similar experimental procedure as Example 4 is used to prepare acyline sample for example 7. The result of comparison of 0.01 mg/mL acyline samples having 0.1%, 0.5% and 1% Tween 80 is graphically recorded in FIG. 8.

gelation of acyline (0.01 mg/mL acyline sample, 1% Tween 80 (versus 0.1% and 0.5%)): significantly reduces the gelation | gelation of acyline (0.1 mg/mL acyline, pH 6.8 buffer, 37° C., 0.6 mg/mL sodium caprate alone (below CMC), 0% Tween 80): insufficient to reduce the gelation | gelation of acyline (0.1 mg/mL and 0.01 mg/mL acyline sample, 1% Tween 80): reduces gelation
Compound: CC(=O)Nc1ccc(C[C@H](NC(=O)[C@H](CO)NC(=O)[C@@H](Cc2cccnc2)NC(=O)[C@@H](Cc2ccc(Cl)cc2)NC(=O)[C@@H](Cc2ccc3ccccc3c2)NC(C)=O)C(=O)N[C@H](Cc2ccc(NC(C)=O)cc2)C(=O)N[C@@H](CC(C)C)C(=O)N[C@@H](CCCCNC(C)C)C(=O)N2CCC[C@H]2C(=O)N[C@H](C)C(N)=O)cc1 [acyline, Ac-D2Nal-D4Cpa-D3Pal-Ser4Aph(Ac)-D4Aph(Ac)-Leu-ILys-Pro-DAla-NH2] (Ac-[d2Nal][dPhe(4-Cl)][d3Pal]S[Phe(4-NH2)](Ac)[dPhe(4-NH2)](Ac)L[Lys(iPr)]P[dA]-NH2)
